From paper PMC5218480 (PLoS ONE, 2017)

Tested on: MV-4-11 cells
Experiment: Gene expression microarray analysis (Affymetrix PrimeView) and GSEA
Type: cell-based, human
Set-up: RFU PODN (11730768_x_at) / Fold change /veh PODN (11730768_x_at) / RFU LINC00158 (11744669_a_at) / Fold change /veh LINC00158 (11744669_a_at) / RFU DUSP10 (11751237_a_at) / Fold change /veh DUSP10 (11751237_a_at) / RFU ID3 (11757404_x_at) / Fold change /veh ID3 (11757404_x_at) / RFU PLEKHG5 (11737974_s_at) / Fold change /veh PLEKHG5 (11737974_s_at) / RFU LRRC4B (11730491_at) / Fold change /veh LRRC4B (11730491_at) / RFU GIMAP4 (11747438_a_at) / Fold change /veh GIMAP4 (11747438_a_at) / RFU KRT8 (11758183_x_at) / Fold change /veh KRT8 (11758183_x_at) / RFU CNN1 (11734310_a_at) / Fold change /veh CNN1 (11734310_a_at) / RFU VPS37D (11726825_at) / Fold change /veh VPS37D (11726825_at) / RFU C10orf10 (11716522_x_at) / Fold change /veh C10orf10 (11716522_x_at) / RFU KIR2DL2 /// KIR2DL4 /// KIR2DL5A /// KIR2DL5B /// KIR2DS1 /// KIR2DS2 /// KIR2DS3 /// KIR2DS4 /// KIR3DL3 /// KIR3DL3 /// KIR3DS1 (11738374_at) / Fold change /veh KIR2DL2 /// KIR2DL4 /// KIR2DL5A /// KIR2DL5B /// KIR2DS1 /// KIR2DS2 /// KIR2DS3 /// KIR2DS4 /// KIR3DL3 /// KIR3DL3 /// KIR3DS1 (11738374_at) / RFU C1QL1 (11718748_at) / Fold change /veh C1QL1 (11718748_at) / RFU TMPRSS4 (11747572_a_at) / Fold change /veh TMPRSS4 (11747572_a_at) / RFU HAMP (11756126_x_at) / Fold change /veh HAMP (11756126_x_at) / RFU RNFT2 (11725882_a_at) / Fold change /veh RNFT2 (11725882_a_at) / RFU NR4A2 (11747474_a_at) / Fold change /veh NR4A2 (11747474_a_at) / RFU ABCC12 (11746883_a_at) / Fold change /veh ABCC12 (11746883_a_at) / RFU TMEM136 (11760407_x_at) / Fold change /veh TMEM136 (11760407_x_at) / RFU CLDN22 /// WWC2 (11732394_at) / Fold change /veh CLDN22 /// WWC2 (11732394_at) / RFU HLA-DPB1 (11760878_x_at) / Fold change /veh HLA-DPB1 (11760878_x_at) / RFU SPINT1 (11716480_a_at) / Fold change /veh SPINT1 (11716480_a_at) / RFU GAP43 (11754022_s_at) / Fold change /veh GAP43 (11754022_s_at) / RFU A4GNT (11735810_at) / Fold change /veh A4GNT (11735810_at) / RFU PRB3 (11715151_x_at) / Fold change /veh PRB3 (11715151_x_at) / RFU TUBB4B (11761932_at) / Fold change /veh TUBB4B (11761932_at) / RFU CAPN14 (11732068_a_at) / Fold change /veh CAPN14 (11732068_a_at) / RFU TMCC2 (11721928_a_at) / Fold change /veh TMCC2 (11721928_a_at) / RFU IRGQ (11745062_a_at) / Fold change /veh IRGQ (11745062_a_at) / RFU FAM174B (11720279_a_at) / Fold change /veh FAM174B (11720279_a_at) / RFU TMPRSS4 (11748680_a_at) / Fold change /veh TMPRSS4 (11748680_a_at) / RFU FAM212B (11763350_a_at) / Fold change /veh FAM212B (11763350_a_at) / RFU PLEKHG5 (11743358_a_at) / Fold change /veh PLEKHG5 (11743358_a_at) / RFU ZSCAN30 (11745921_a_at) / Fold change /veh ZSCAN30 (11745921_a_at) / RFU CMKLR1 (11741424_a_at) / Fold change /veh CMKLR1 (11741424_a_at) / RFU LOC101060620 /// MAPK8IP1 (11723275_at) / Fold change /veh LOC101060620 /// MAPK8IP1 (11723275_at) / RFU SPTSSB (11747773_x_at) / Fold change /veh SPTSSB (11747773_x_at) / RFU PRSS12 (11739890_at) / Fold change /veh PRSS12 (11739890_at) / RFU BIN1 (11741810_x_at) / Fold change /veh BIN1 (11741810_x_at) / RFU WNT11 (11732464_a_at) / Fold change /veh WNT11 (11732464_a_at) / RFU C10orf10 (11716521_a_at) / Fold change /veh C10orf10 (11716521_a_at) / RFU C5orf56 (11738089_at) / Fold change /veh C5orf56 (11738089_at) / RFU CYB561 (11721691_x_at) / Fold change /veh CYB561 (11721691_x_at) / RFU ANKRD19P (11752326_a_at) / Fold change /veh ANKRD19P (11752326_a_at) / RFU OR2T12 /// OR2T33 /// OR2T8 (11738714_s_at) / Fold change /veh OR2T12 /// OR2T33 /// OR2T8 (11738714_s_at) / RFU VCAN (11748164_a_at) / Fold change /veh VCAN (11748164_a_at) / RFU JSRP1 (11732532_at) / Fold change /veh JSRP1 (11732532_at) / RFU KRTAP10-11 (11738290_x_at) / Fold change /veh KRTAP10-11 (11738290_x_at) / RFU MYO3A (11730013_a_at) / Fold change /veh MYO3A (11730013_a_at) / RFU EBF3 (11725865_a_at) / Fold change /veh EBF3 (11725865_a_at) / RFU CAMK2N1 (11719241_x_at) / Fold change /veh CAMK2N1 (11719241_x_at) / RFU C5orf56 (11738088_a_at) / Fold change /veh C5orf56 (11738088_a_at) / RFU OLFML3 (11715873_a_at) / Fold change /veh OLFML3 (11715873_a_at) / RFU LOC100653217 /// NTM (11731650_a_at) / Fold change /veh LOC100653217 /// NTM (11731650_a_at) / RFU MAPK11 (11762145_a_at) / Fold change /veh MAPK11 (11762145_a_at) / RFU FIZ1 (11724087_x_at) / Fold change /veh FIZ1 (11724087_x_at) / RFU OASL (11726364_x_at) / Fold change /veh OASL (11726364_x_at) / RFU SOX15 (11748057_x_at) / Fold change /veh SOX15 (11748057_x_at) / RFU CD79A (11719716_a_at) / Fold change /veh CD79A (11719716_a_at) / RFU HIST1H1D (11736915_at) / Fold change /veh HIST1H1D (11736915_at) / RFU CASKIN2 (11723855_a_at) / Fold change /veh CASKIN2 (11723855_a_at) / RFU LOC730098 (11760151_x_at) / Fold change /veh LOC730098 (11760151_x_at) / RFU OR4N2 (11742367_at) / Fold change /veh OR4N2 (11742367_at) / RFU PRRT2 (11749266_a_at) / Fold change /veh PRRT2 (11749266_a_at) / RFU SNX32 (11753110_a_at) / Fold change /veh SNX32 (11753110_a_at) / RFU CDHR5 (11726645_a_at) / Fold change /veh CDHR5 (11726645_a_at) / RFU RCAN1 (11760418_a_at) / Fold change /veh RCAN1 (11760418_a_at) / RFU FAM167A (11723789_a_at) / Fold change /veh FAM167A (11723789_a_at) / RFU FAM26E (11764081_at) / Fold change /veh FAM26E (11764081_at) / RFU ISYNA1 (11749810_s_at) / Fold change /veh ISYNA1 (11749810_s_at) / RFU ACY1 (11761880_at) / Fold change /veh ACY1 (11761880_at) / RFU 11764098_at / Fold change /veh 11764098_at / RFU SAMD14 (11745864_x_at) / Fold change /veh SAMD14 (11745864_x_at) / RFU NPB (11741838_a_at) / Fold change /veh NPB (11741838_a_at) / RFU TMPRSS6 (11731388_a_at) / Fold change /veh TMPRSS6 (11731388_a_at) / RFU KRTAP10-2 (11738614_at) / Fold change /veh KRTAP10-2 (11738614_at) / RFU ARHGAP8 /// PRR5-ARHGAP8 (11727945_x_at) / Fold change /veh ARHGAP8 /// PRR5-ARHGAP8 (11727945_x_at) / RFU KRTAP5-7 /// NADSYN1 (11734609_at) / Fold change /veh KRTAP5-7 /// NADSYN1 (11734609_at) / RFU RASL12 (11751679_a_at) / Fold change /veh RASL12 (11751679_a_at) / RFU CDKN2B (11736163_a_at) / Fold change /veh CDKN2B (11736163_a_at) / RFU PRF1 (11729649_at) / Fold change /veh PRF1 (11729649_at) / RFU, ZNF638 /// ZNF638-IT1 / Fold change vs veh, ZNF638 /// ZNF638-IT1 / RFU, PANK3 / Fold change vs veh, PANK3 / RFU, SH3YL1 / Fold change vs veh, SH3YL1 / RFU, ZEB2 / Fold change vs veh, ZEB2 / RFU, NRIP1 / Fold change vs veh, NRIP1 / RFU, PTTG1IP / Fold change vs veh, PTTG1IP / RFU, CAPN2 / Fold change vs veh, CAPN2 / RFU, MED14 / Fold change vs veh, MED14 / RFU, SNORA58 / Fold change vs veh, SNORA58 / RFU, C1orf63 / Fold change vs veh, C1orf63 / RFU, LRRFIP1 / Fold change vs veh, LRRFIP1 / RFU, NDUFAF7 / Fold change vs veh, NDUFAF7 / RFU, SLC12A2 / Fold change vs veh, SLC12A2 / RFU, IBTK / Fold change vs veh, IBTK / RFU, ESF1 / Fold change vs veh, ESF1 / Fold change vs veh, TMEM50B / RFU, TAOK1 / Fold change vs veh, TAOK1 / RFU, ACBD3 / Fold change vs veh, ACBD3 / RFU, TMA16 / Fold change vs veh, TMA16 / RFU, RWDD3 / Fold change vs veh, RWDD3 / RFU, BCAT1 / Fold change vs veh, BCAT1 / RFU, EDEM3 / Fold change vs veh, EDEM3 / RFU, TMEM33 / Fold change vs veh, TMEM33 / RFU, WDR75 / Fold change vs veh, WDR75 / RFU, AHCTF1 / Fold change vs veh, AHCTF1 / RFU, TFRC / Fold change vs veh, TFRC / RFU, ZDHHC17 / Fold change vs veh, ZDHHC17 / RFU, NOM1 / Fold change vs veh, NOM1 / RFU, ARL8B / Fold change vs veh, ARL8B / RFU, ZBTB11 / Fold change vs veh, ZBTB11 / RFU, TAMM41 / Fold change vs veh, TAMM41 / RFU, KIAA1704 /// LOC100996395 / Fold change vs veh, KIAA1704 /// LOC100996395 / RFU, ING1 / Fold change vs veh, ING1 / RFU, TRMT61B / Fold change vs veh, TRMT61B / RFU, FUBP3 / Fold change vs veh, FUBP3 / RFU, TP53 / Fold change vs veh, TP53 / RFU, TNKS2 / Fold change vs veh, TNKS2 / RFU, ZFP14 / Fold change vs veh, ZFP14 / RFU, ACTR2 / Fold change vs veh, ACTR2 / RFU, PPP3R1 / Fold change vs veh, PPP3R1 / RFU, PIK3R1 / Fold change vs veh, PIK3R1 / RFU, HNRNPA1 / Fold change vs veh, HNRNPA1 / RFU, RNF170 / Fold change vs veh, RNF170 / RFU, ZNF28 / Fold change vs veh, ZNF28 / RFU, RNGTT / Fold change vs veh, RNGTT / RFU, OGT / Fold change vs veh, OGT / RFU, BRD1 / Fold change vs veh, BRD1 / RFU, MARS / Fold change vs veh, MARS / RFU, ZNF655 / Fold change vs veh, ZNF655 / RFU, FAHD1 / Fold change vs veh, FAHD1 / RFU, BDP1 / Fold change vs veh, BDP1 / RFU, LRRCC1 / Fold change vs veh, LRRCC1 / RFU, ARID1A / Fold change vs veh, ARID1A / RFU, ZNF146 / Fold change vs veh, ZNF146 / RFU, ZNF330 / Fold change vs veh, ZNF330 / RFU, GPN3 / Fold change vs veh, GPN3 / RFU, C9orf123 / Fold change vs veh, C9orf123 / RFU, N4BP2L2 / Fold change vs veh, N4BP2L2 / RFU, ARFIP1 / Fold change vs veh, ARFIP1 / RFU, FAM179B / Fold change vs veh, FAM179B / RFU, BCL10 / Fold change vs veh, BCL10 / RFU, UHRF1BP1L / Fold change vs veh, UHRF1BP1L / RFU, BET1 / Fold change vs veh, BET1 / RFU, CNOT2 / Fold change vs veh, CNOT2 / RFU, ZNF268 / Fold change vs veh, ZNF268 / Fold change vs veh, ZNF507 / RFU, DGCR2 / Fold change vs veh, DGCR2 / RFU, WDSUB1 / Fold change vs veh, WDSUB1 / Fold change vs veh, HSP90B1 /// MIR3652 / RFU, ADSS / Fold change vs veh, ADSS / RFU, GK / Fold change vs veh, GK / RFU, ZNF148 / Fold change vs veh, ZNF148 / RFU, TAF9 / Fold change vs veh, TAF9 / RFU, SLC1A5 / Fold change vs veh, SLC1A5 / RFU, SLMO2 / Fold change vs veh, SLMO2 / RFU, ABCC4 / Fold change vs veh, ABCC4 / RFU, LOC101060439 /// RAP1B / Fold change vs veh, LOC101060439 /// RAP1B / RFU, RFX7 / Fold change vs veh, RFX7 / RFU, GTPBP10 / Fold change vs veh, GTPBP10 / RFU, CNEP1R1 / Fold change vs veh, CNEP1R1 / RFU, BIVM-ERCC5 /// ERCC5 / Fold change vs veh, BIVM-ERCC5 /// ERCC5 / RFU, ILF3 / Fold change vs veh, ILF3 / RFU 11762660_at / Fold change /veh 11762660_at / RFU VCAN (11757783_s_at) / Fold change /veh VCAN (11757783_s_at) / RFU DDX43 (11728927_at) / Fold change /veh DDX43 (11728927_at) / RFU KRT8 (11758188_x_at) / Fold change /veh KRT8 (11758188_x_at) / RFU NKD1 (11759106_at) / Fold change /veh NKD1 (11759106_at) / RFU SRD5A1 (11742802_a_at) / Fold change /veh SRD5A1 (11742802_a_at) / RFU TPSAB1 /// TPSB2 (11721975_s_at) / Fold change /veh TPSAB1 /// TPSB2 (11721975_s_at) / RFU GSTM3 (11746129_a_at) / Fold change /veh GSTM3 (11746129_a_at) / RFU IL23R (11737362_x_at) / Fold change /veh IL23R (11737362_x_at) / RFU TMEM51 (11727254_a_at) / Fold change /veh TMEM51 (11727254_a_at) / RFU PIWIL2 (11732686_x_at) / Fold change /veh PIWIL2 (11732686_x_at) / RFU ORM1 (11744905_x_at) / Fold change /veh ORM1 (11744905_x_at) / RFU CCDC152 (11743942_at) / Fold change /veh CCDC152 (11743942_at) / RFU ECM1 (11717891_a_at) / Fold change /veh ECM1 (11717891_a_at) / RFU IL23R (11748794_a_at) / Fold change /veh IL23R (11748794_a_at) / RFU TNFAIP8L3 (11732012_x_at) / Fold change /veh TNFAIP8L3 (11732012_x_at) / RFU MBOAT4 (11741988_at) / Fold change /veh MBOAT4 (11741988_at) / RFU 11764193_at / Fold change /veh 11764193_at / RFU TMEM53 (11763286_at) / Fold change /veh TMEM53 (11763286_at) / RFU MAGEB2 (11727129_at) / Fold change /veh MAGEB2 (11727129_at) / RFU TMEM200A (11744735_a_at) / Fold change /veh TMEM200A (11744735_a_at) / RFU CCDC152 (11751479_a_at) / Fold change /veh CCDC152 (11751479_a_at) / RFU FAM211A (11726209_a_at) / Fold change /veh FAM211A (11726209_a_at) / RFU RGS16 (11746705_a_at) / Fold change /veh RGS16 (11746705_a_at) / RFU VCAN (11755009_s_at) / Fold change /veh VCAN (11755009_s_at) / RFU RHOB (11743442_s_at) / Fold change /veh RHOB (11743442_s_at) / RFU RGS16 (11720943_a_at) / Fold change /veh RGS16 (11720943_a_at) / RFU RGS16 (11720944_at) / Fold change /veh RGS16 (11720944_at) / RFU, VPS4B / Fold change vs veh, VPS4B / RFU, CREB1 / Fold change vs veh, CREB1 / RFU, DNAJC13 / Fold change vs veh, DNAJC13 / RFU, GNAQ / Fold change vs veh, GNAQ / RFU, CDK5R1 / Fold change vs veh, CDK5R1 / RFU, ZRANB3 / Fold change vs veh, ZRANB3 / RFU, CUL4A / Fold change vs veh, CUL4A / RFU, CCNY / Fold change vs veh, CCNY / RFU, UFL1 / Fold change vs veh, UFL1 / RFU, COG3 / Fold change vs veh, COG3 / RFU, DIAPH2 / Fold change vs veh, DIAPH2 / RFU, SKA2 / Fold change vs veh, SKA2 / RFU, AFF3 / Fold change vs veh, AFF3 / RFU, LMF1 / Fold change vs veh, LMF1 / RFU, IPO11 / Fold change vs veh, IPO11 / RFU, DFFB / Fold change vs veh, DFFB / RFU, FOXP1 / Fold change vs veh, FOXP1 / RFU, CARD8 / Fold change vs veh, CARD8 / RFU, STRN3 / Fold change vs veh, STRN3 / RFU, ADK / Fold change vs veh, ADK / RFU, RASSF2 / Fold change vs veh, RASSF2 / RFU, WIPF1 / Fold change vs veh, WIPF1 / RFU, LARP1B / Fold change vs veh, LARP1B / RFU, RASA1 / Fold change vs veh, RASA1 / RFU, RB1 / Fold change vs veh, RB1 / RFU, PPFIA1 / Fold change vs veh, PPFIA1 / RFU, MAT2A / Fold change vs veh, MAT2A / RFU, CCT5 / Fold change vs veh, CCT5 / RFU, WDR92 / Fold change vs veh, WDR92 / RFU, CUX1 / Fold change vs veh, CUX1 / RFU, TTC7A / Fold change vs veh, TTC7A / RFU, TMEM135 / Fold change vs veh, TMEM135 / RFU, DEPTOR / Fold change vs veh, DEPTOR / RFU, CPM / Fold change vs veh, CPM / RFU, DNAJB6 / Fold change vs veh, DNAJB6 / RFU, CACNA2D3 / Fold change vs veh, CACNA2D3 / RFU, DTX4 / Fold change vs veh, DTX4 / RFU, TFCP2 / Fold change vs veh, TFCP2 / RFU, GMCL1 /// GMCL1P1 / Fold change vs veh, GMCL1 /// GMCL1P1 / RFU, AEBP2 / Fold change vs veh, AEBP2 / RFU, SNHG1 /// SNORD22 /// SNORD25 /// SNORD26 /// SNORD27 /// SNORD28 /// SNORD29 /// SNORD31 / Fold change vs veh, SNHG1 /// SNORD22 /// SNORD25 /// SNORD26 /// SNORD27 /// SNORD28 /// SNORD29 /// SNORD31 / Fold change (Aza/veh), C12orf56 (ProbeSet 11735607_a_at) / Fold change (ACY-1035/veh), C12orf56 (ProbeSet 11735607_a_at) / Fold change (Aza/veh), FGFR1OP (ProbeSet 11751329_s_at) / Fold change (ACY-1035/veh), FGFR1OP (ProbeSet 11751329_s_at) / Fold change (Aza/veh), VPS36 (ProbeSet 11739960_a_at) / Fold change (ACY-1035/veh), VPS36 (ProbeSet 11739960_a_at) / RFU SYPL1 (11715823_x_at) / Fold change /veh SYPL1 (11715823_x_at) / RFU IGFBP7 (11715501_s_at) / Fold change /veh IGFBP7 (11715501_s_at) / RFU REEP3 (11722064_at) / Fold change /veh REEP3 (11722064_at) / RFU IGLL1 (11728026_x_at) / Fold change /veh IGLL1 (11728026_x_at): dose or concentration left out as unconfirmed
Settings: ProbeSet 11757268_x_at; LIST B

**Q.** With `Nc1ccc(-c2cccs2)cc1NC(=O)c1ccc2c(c1)cc(C1CC1)n2CCN1CCOCC1` [ACY-1035] as the molecule, how does the “Fold change vs veh, HNRNPA1” value read?
**A.** The value was 0.97.
